The source of these data is patent US12527753B2, “Cysteamine for the treatment, mitigation and prevention of coronaviral, e.g., SARS-CoV-2, infections” (The Regents of the University of Michigan, priority 2020, dated 2026).

Where a name gives a salt, the structure may show the parent alone. Read-outs that look alike come from different tables or passages of the source.

Data set [1] has as its system SARS-CoV-2 WA wild type. Description: Virus pre-incubation, plaque formation in TMPRSS cells. As to conditions: Severe acute respiratory syndrome coronavirus 2, 2 h; 5 mM, 120 min incubation. It counts as cell-based.
The test system of data set [2] is SARS-CoV-2-WA1 strain. Description: Huh7 cellular infectivity assay with SARS-CoV-2 (high content bioimaging). It counts as cell-based. The conditions noted are these: for efficacy in preventing SARS-CoV-2 infection: Huh-7 cells, normalized to infected and uninfected vehicle wells. As to the method:
(§1) FIGS. 3A-D. Cysteamine efficacy in the Huh7 cellular infectivity assay with SARS-CoV-2-WA1 strain. Cells are infected at 0.2 MOI and are incubated for 48 hours to allow for the initial infection and propagation to surrounding cells. […] All concentrations of cysteamine (50, 20, 8, 3, 1.5 micromolar) tested were non-cytotoxic indicating an acceptable therapeutic index.
Experiments were conducted during development of embodiments herein using a fully developed high-content screening pipeline to screen approved drugs against SARS Cov-2, the causative agent of COVID-19. A high throughput screen of FDA-approved drugs was conducted to determine the efficacy in a SARS-CoV-2 infectivity assay. This high content bioimaging-based assay has proven to be highly robust and informative, and clearly differentiates between infected and uninfected cells (FIG. 2). This high-content screen identifies individual agents effective in reducing viral infectivity or replication by imaging individual SARS Cov-2 infected cells. A screen of 1,200 compounds was conducted through the validated assay platform. Remdesivir, a viral replication inhibitor, was selected as a positive control, which results in 100% efficacy.
Cysteamine was evaluated for its antiviral effects at 5 doses with 9 replicates at each dose for a total of 45 independent experiments. Automated image analysis was performed to quantitate the number and percentage of infected cells and that was normalized to the infected and vehicle (DMSO) treated wells and the uninfected and vehicle treated wells representing 0-100% efficacy, as shown on the y-axis dose response plot for cysteamine anti-SARS-CoV-2 (FIG. 3).

Data set [3] relates to Huh7 cells. Description: Cytotoxicity in the Huh7 infectivity assay. It is filed as cell-based. As to conditions: 50, 20, 8, 3, 1.5 micromolar. As to the method:
as §1

Data set [4] deals with HTLV-IIIB strain of HIV-1. As to conditions: 100 μM; CEM cells; cited from earlier work.
Data set [5] concerns HIV-1 (4 primary isolates and 2 laboratory strains). As to conditions: cited from earlier work.
Data set [6] deals with epithelial fibroblasts. As to conditions: concentrations up to 10 μM; cited from earlier work.
For data set [7] the following is noted: aqueous 0.1% and 0.5% (10 mM and 50 mM); cited from earlier work.
For data set [8] the following is noted: aqueous 0.1% and 0.5%, topical; cited from earlier work.

In general, inhibition refers to how much of the control response was suppressed. Read a low inhibition as a weak effect. As to `NCCS` [cysteamine HCl], the inhibition at 5000 µM in data set [1] was 85 to 95%.
For the compound 2-aminoethanethiol [cysteamine], the “viral infection relative to the negative control” value in data set [2] (8 micromolar, Huh7 cells, 0.2 MOI, 48 hours, syncytia present) is reported as “reduced viral infection relative to the negative control”. Further, the “infected cells / nucleocapsid staining” value in data set [2] (20 micromolar, Huh7 cells, 0.2 MOI, 48 hours) is listed as “small percentage of infected cells that have a diminished nucleocapsid staining”. In addition, the “elimination of SARS-CoV-2 infection” value in data set [2] (50 micromolar, Huh7 cells, 0.2 MOI, 48 hours) is given as 100%. The EC50 in data set [2] (Huh7 cells, 0.2 MOI, 48 hours, read-out: EC50 (concentration at 50% effect)) was about 5 µM. Also, the “efficacy in preventing SARS-CoV-2 infection” value in data set [2] is about 100%. The cytotoxicity entry in data set [3] is “non-cytotoxic”. Further, in data set [4], the inhibition of cytotoxicity is 100%. Moreover, the viral inhibition result in data set [5] (200 μM, lymphocytes) is listed as “More than 90%”. Besides, the viral inhibition entry in data set [5] (100 microM, macrophages) is “More than 90%”. In data set [5] (in conjunction with zidovudine or didanosine, without concomitant increases in toxicity), the “antiviral effect of combination” value is recorded as “additive antiviral effect”. The “effect on growth rate” value in data set [6] is listed as “no effect on growth rate”. Moreover, the “safety via the Draize test” value in data set [7] is listed as “safe”. For the same compound, in data set [8], the “reduction of corneal cystine crystals” value is on record as “effective in reducing the cystine crystals” and the “tolerability in chronic use” value is listed as “well-tolerated”.
For `CCC(CC)COC(=O)[C@H](C)N[P@](=O)(OC[C@H]1O[C@@](C#N)(c2ccc3c(N)ncnn23)[C@H](O)[C@@H]1O)Oc1ccccc1` [Remdesivir], the “efficacy in preventing SARS-CoV-2 infection” value in data set [2] is on record as 100%.
